# Data reported in US5153124A, “Hydroxyl-ML-236B derivatives, their preparation and use” (Sankyo Company Limited, priority 1985, dated 1992).
# Tested on: cholesterol biosynthesis
# Test: Inhibitory activity against cholesterol biosynthesis (method of J. Biol. Chem. 234, 2835 (1959))
# Type: biochemical
# Conditions: method of Journal of Biological Chemistry, 234, 2835 (1959)
# Excerpt: The inhibitory activities of certain of the compounds of the invention, in terms of the concentration in μg/ml required to inhibit cholesterol biosynthesis by 50% [measured by the method described in the Journal of Biological Chemistry, 234, 2835 (1959)], are as follows: […]
row,SMILES,concentration required to inhibit cholesterol biosynthesis by 50% [µg/mL]
1,"CC(O)[C@H](C)C(=O)O[C@H]1C[C@H](O)C=C2C=C[C@H](C)[C@H](CC[C@@H](O)C[C@@H](O)CC(=O)O)[C@H]21 (single isomer, unassigned) [Sodium 3"",6'β-dihydroxy-ML-236B carboxylate, Substance A]",0.0018
2,"CC(O)[C@H](C)C(=O)O[C@H]1C[C@H](O)C=C2C=C[C@H](C)[C@H](CC[C@@H](O)C[C@@H](O)CC(=O)O)[C@H]21 (single isomer, unassigned) [Sodium 3"",6'β-dihydroxy-ML-236B carboxylate, Substance B]",0.024
3,"CC(O)[C@H](C)C(=O)O[C@H]1CCC=C2C=C[C@H](C)[C@H](CC[C@@H]3C[C@@H](O)CC(=O)O3)[C@H]21 (some centres unmarked) [3""-hydroxy-ML-236B lactone, 3""-Hydroxy-ML-236B lactone]",0.039
4,"CC[C@H](C)C(=O)O[C@H]1CCC=C2C=C[C@H](C)[C@H](CC[C@@H]3C[C@@H](O)CC(=O)O3)[C@H]21 [ML-236B lactone, reference compound]",0.010
5,"CC(O)[C@H](C)C(=O)O[C@H]1CCC=C2C=C[C@H](C)[C@H](CC[C@@H](O)C[C@@H](O)CC(=O)O)[C@H]21 (some centres unmarked) [Sodium 3""-hydroxy-ML-236B carboxylate]",0.0032
